In PubChem BioAssay (NCI):
Several values for one entry are separate records, joined by “and”; a condition that tells them apart may be missing. Identical values can stand only once.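 Method: 48-hour compound exposure of cells in 96-well plates, five concentrations, linear interpolation of endpoints. GI50: concentration for 50% inhibition of growth. TGI marks complete inhibition of growth.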

Experiments:
Assay in all cases: NCI anticancer screen, dose series, 48 h
EKVX NSCLC = tested on: EKVX NSCLC
HCC-2998 colon = tested on: HCC-2998 colon
SNB-75 CNS = tested on: SNB-75 CNS
SW-620 colon = tested on: SW-620 colon
SF-539 CNS = tested on: SF-539 CNS
SR leukemia = tested on: SR leukemia
CCRF-CEM leukemia = tested on: CCRF-CEM leukemia
KM12 colon = tested on: KM12 colon
MDA-MB-435 = tested on: MDA-MB-435
T-47D breast = tested on: T-47D breast

SMILES | TGI (EKVX NSCLC) | TGI (HCC-2998 colon) | TGI (SNB-75 CNS) | TGI (SW-620 colon) | TGI (SF-539 CNS) | TGI (SR leukemia) | TGI (CCRF-CEM leukemia) | TGI (KM12 colon) | GI50 (EKVX NSCLC) | GI50 (HCC-2998 colon) | GI50 (SNB-75 CNS) | GI50 (SW-620 colon) | GI50 (SF-539 CNS) | GI50 (MDA-MB-435) | TGI (MDA-MB-435) | GI50 (T-47D breast) | TGI (T-47D breast) | GI50 (CCRF-CEM leukemia) | GI50 (KM12 colon) | GI50 (SR leukemia)
c1ccc2cc(-c3cc4ccccc4s3)ccc2c1 | > 100 µM | > 100 µM | 93.7 µM | > 100 µM | > 100 µM | > 100 µM | > 100 µM | > 100 µM |  |  |  |  |  |  |  |  |  |  |  | 
O=c1/c(=C/c2ccccc2[N+](=O)[O-])sc2nnc(-c3ccco3)n12 | > 100 µM | 43.4 µM | 84.7 µM | 46.8 µM | 33.9 µM | 70.9 µM | 49.8 µM | 33.4 µM |  |  |  |  |  |  |  |  |  |  |  | 
OC(CC1SCCCS1)c1ccccc1 (configuration not stated) | > 100 µM | > 100 µM | > 100 µM | > 100 µM | > 100 µM |  | > 100 µM | > 100 µM |  |  |  |  |  |  |  |  |  |  |  | 
CC(C)N(C(=O)C12C3C4C1C1C4(C#N)C3C12C#N)C(C)C (configuration not stated) | > 100 µM | > 100 µM |  | > 100 µM | > 100 µM |  | > 100 µM |  |  |  |  |  |  |  |  |  |  |  |  | 
CC/C=C\C[C@H](O)C/C=C1/C(=O)C(Cl)=C[C@@H]1C/C=C\CCCC(=O)OC | 3.51 µM | 2.22 µM | 4.65 µM | 1.29 µM | 3.05 µM |  | 1.73 µM | 1.14 µM | 1.03 µM | 0.701 µM | 1.88 µM | 0.318 µM | 0.818 µM | 0.404 µM | 1.22 µM | 0.985 µM | 4.37 µM | 0.412 µM | 0.387 µM | 
Nc1ccc([N+](=O)[O-])cc1N=C/C=C/c1ccccc1 | > 100 µM | > 100 µM | 96.6 µM | > 100 µM | > 100 µM | > 100 µM |  | 51.2 µM | 19.1 µM | 30.1 µM | 10.8 µM | 6.12 µM | 21.7 µM |  |  | 15.7 µM | 77.7 µM |  | 3.87 µM | 3.48 µM
CCCCC#CC1=C(Br)C(=O)OC1 | 10.7 µM |  | > 100 µM | 0.21 µM | 14.4 µM | > 100 µM |  | 3.89 µM | 3.79 µM |  | 15.6 µM | 0.0237 µM | 2.52 µM | 2.17 µM | 5.54 µM | 5.79 µM | > 31.6 µM | 0.261 µM | 1.8 µM | 0.36 µM
COc1cc(C(=O)N2CCN(C=O)C2=S)cc(OC)c1OC | 97.6 µM | 38.7 µM | 34.6 µM | 70 µM | 43.2 µM |  | 49 µM | 29.5 µM | 31.8 µM | 19.8 µM | 10.9 µM | 26.8 µM | 21.3 µM | 15.5 µM | 30.8 µM | 20.7 µM | 90.6 µM | 18.3 µM | 14.4 µM | 
C#CCOc1cccc(-c2ncc3cc(NC(=O)CCl)ccc3n2)c1 |  | 3.4 µM | 15.4 µM | 3.25 µM | 2.92 µM |  | 0.994 µM | 3.11 µM |  | 1.91 µM | 2.22 µM | 1.56 µM | 1.51 µM |  |  |  |  | 0.252 µM | 1.61 µM | 
O=C(CCN(C(=O)O)S(=O)(=O)c1ccc(NC(=O)c2ccccc2)cc1)Nc1ccccc1 | > 100 µM | > 100 µM | > 100 µM | > 68 µM | > 100 µM | > 100 µM | > 81.2 µM | > 100 µM |  |  |  |  |  |  |  |  |  |  |  | 
Cc1c2n(c(=O)[nH]c1=O)C1OC(CO)C(O2)C1O (configuration not stated) | > 100 µM |  | > 100 µM | > 100 µM | > 100 µM | > 100 µM | > 100 µM | > 100 µM |  |  |  |  |  |  |  |  |  |  |  | 
NC(N)=N/N=C/c1c(-c2ccsc2)nc2sccn12 | 29.4 µM |  | 26.4 µM | 43.1 µM | 34.2 µM |  | 6.07 µM | 24.5 µM | 15.1 µM |  | 13.4 µM | 18.3 µM | 18.3 µM | 14.6 µM | 27.7 µM | 16.8 µM | 31.9 µM | 1.48 µM | 12.1 µM | 
CCCCOC(=O)CNC(=O)OC/C=C/C#CC#C/C=C/COC(=O)NCC(=O)OCCCC | > 100 µM | > 100 µM | > 10 µM and 88.8 µM | > 100 µM | > 100 µM | > 10 µM | > 100 µM | > 100 µM | > 100 µM | > 100 µM | > 10 µM |  | > 100 µM |  |  |  |  | > 100 µM | > 100 µM | 
NC(=S)N/N=C/C(=O)O |  |  | > 100 µM | > 100 µM | > 100 µM | > 100 µM | > 100 µM | > 100 µM |  |  | > 100 µM | > 100 µM | > 100 µM | > 100 µM | > 100 µM | 21.3 µM | > 100 µM | 65.4 µM | > 100 µM | > 100 µM
Nc1nc(Cl)cc(NCCCCCCCCNc2cc(Cl)nc(N)n2)n1 | > 100 µM | > 100 µM | 74.4 µM | > 100 µM | > 100 µM | 96.8 µM | > 100 µM | 56.9 µM |  |  |  |  |  |  |  |  |  |  |  | 
CCC12CCCN(Cc3ccccc3)C1c1c(n(C)c3ccccc13)CC2 (configuration not stated) | > 253 µM | > 253 µM |  | > 253 µM | > 253 µM | > 253 µM | > 253 µM | > 253 µM |  |  |  |  |  |  |  |  |  |  |  | 
O=C1CCC2(c3ccc(Cl)cc3)Nc3ncccc3N12 (configuration not stated) | > 100 µM | > 100 µM | > 100 µM | > 100 µM | > 100 µM |  | > 100 µM | > 100 µM |  |  |  |  |  |  |  |  |  |  |  | 
COc1ccc2occ(CCC(=O)O)c2c1 | > 100 µM | > 100 µM | > 100 µM | > 100 µM | > 100 µM |  | > 100 µM |  |  |  |  |  |  |  |  |  |  |  |  | 
O=C(Nc1ccn(CCO)c(=O)n1)c1ccccc1 | > 100 µM |  | > 100 µM | > 100 µM | > 100 µM | > 100 µM | > 100 µM | > 100 µM |  |  |  |  |  |  |  |  |  |  |  | 
O=[N+]([O-])c1cccc(C2=NN(c3ccccc3)C[N+](c3ccc(Br)cc3)=N2)c1 | > 100 µM | > 100 µM | > 100 µM | > 100 µM | > 100 µM | 16.9 µM |  | > 100 µM |  |  |  |  |  |  |  |  |  |  |  | 
